Data: US20250221431A1, “METHOD FOR FEEDING BLACK SOLDIER FLY LARVAE WITH SELENIUM-RICH BACTERIA SOLUTION” (priority 2024, published 2025)
Like-named read-outs stand apart in the source and are kept apart here.

Tests used:
black soldier fly larvae [1] = conditions: Example 2, chicken feed, 4-day-old larvae
Protocol: Step 3, 4-day-old black soldier fly larvae were selected to be fed; the selenium-rich bacteria solution was added to chicken feed to enable the chicken feed to have a total selenium content of 100, 200, 300 mg/kg (wet weight), respectively; a moisture content of the chicken feed was controlled to 60%, then the black soldier fly larvae were fed with the chicken feed at a ratio of dry chicken feed to larva being 116 g per 150 larvae (the ratio of dry feed to larva was 0.77) in conditions of 28° C.-30° C. feeding temperature and 60%-70% air humidity level, and feeding was terminated at the end of the fifth instar of the larvae.
(§1) The effects of the selenium-rich bacteria solution on breeding of the selenium-rich black soldier flies were determined according to the indicators, i.e. growth performance of the larvae (survival rate, larva weight), bioconversion efficiency, and selenium content in the larva.
(§2) After the feeding was terminated, the obtained larvae were screened, washed, wiped dry and weighed. The survival rate was calculated according to the number of live larvae. The larvae were subjected to starvation for 1 day, then dried and weighed. The residual feed was also dried and weighed. Thereby, bioconversion efficiency was calculated according to the following: bioconversion efficiency=dry weight of the larvae/(dry weight of the added feed−dry weight of the residual feed)×100%. Selenium content in the larva was determined after smashing the dry larvae according to “GB5009.93-2017 Determination of Selenium in Food”.

black soldier fly larvae [2] = conditions: Example 3, bean pulp/bran/grass meal 3:5:2 feed, 6-day-old larvae
Protocol: as §2
as §1, with “Effects” for “The effects”, “larva. The test method for each indicator was the same as that in Example 2.” for “larva.”

black soldier fly larvae [3] = conditions: Example 4, bean pulp/bran/grass meal 3:5:2 feed, 6-day-old larvae
Protocol: as §2
as §1, with “Effects” for “The effects”, “larva. Test method for each indicator was the same as that in Example 2.” for “larva.”

black soldier fly larvae [4] = conditions: Example 5, bean pulp/bran/grass meal 3:5:2 feed, 6-day-old larvae
Protocol: as §2
as §1, with “larva. Test method for each indicator was the same as that in Example 2.” for “larva.”

[5] = selenium content added 100.00 mg/kg
[6] = selenium content added 200.00 mg/kg
[7] = selenium content added 300.00 mg/kg

O=[Se](O)O [sodium selenite]
Larva weight (black soldier fly larvae [1]; [5]): 212.39 ± 9.63 mg per larva | Larva weight (black soldier fly larvae [1]; [6]): 214.37 ± 7.56 mg per larva | Survival rate (black soldier fly larvae [1]; [6]): 94.22 ± 1.35% | Larva weight (black soldier fly larvae [1]; [7]): 210.57 ± 3.50 mg per larva | Survival rate (black soldier fly larvae [1]; [7]): 91.33 ± 4.27% | Larva weight (black soldier fly larvae [2]; [5]): 179.63 ± 9.99 mg per larva | Survival rate (black soldier fly larvae [2]; [5]): 85.04 ± 8.77% | Larva weight (black soldier fly larvae [2]; [6]): 154.41 ± 10.66 mg per larva | Survival rate (black soldier fly larvae [2]; [6]): 84.51 ± 5.06% | Larva weight (black soldier fly larvae [2]; [7]): 119.53 ± 10.79 mg per larva | Survival rate (black soldier fly larvae [2]; [7]): 82.22 ± 8.77% | Larva weight (black soldier fly larvae [3]; [5]): 183.72 ± 9.71 mg per larva | Survival rate (black soldier fly larvae [3]; [5]): 87.12 ± 6.53% | Larva weight (black soldier fly larvae [3]; [6]): 156.56 ± 11.10 mg per larva | Survival rate (black soldier fly larvae [3]; [6]): 89.27 ± 3.40% | Larva weight (black soldier fly larvae [3]; [7]): 122.15 ± 5.66 mg per larva | Survival rate (black soldier fly larvae [3]; [7]): 83.17 ± 0.97% | Larva weight (black soldier fly larvae [4]; [5]): 179.95 ± 9.51 mg per larva | Survival rate (black soldier fly larvae [4]; [5]): 85.33 ± 6.40% | Larva weight (black soldier fly larvae [4]; [6]): 153.34 ± 10.87 mg per larva | Survival rate (black soldier fly larvae [4]; [6]): 87.43 ± 3.33% | Larva weight (black soldier fly larvae [4]; [7]): 119.64 ± 5.54 mg per larva | Survival rate (black soldier fly larvae [4]; [7]): 81.46 ± 0.96%
